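Protocol summary: plate cells (96-well), add compound at 5 concentrations, incubate 48 h, interpolate endpoints linearly. Here, GI50 denotes the concentration required for 50% inhibition of growth. Definition used: TGI = concentration required for complete inhibition of growth.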
Key:
Test in all cases: NCI tumour cell line growth inhibition, 48 h; in the data active = GI50 below about 0.43 µM; inactive = the rest
[1] = tested on: 786-0 renal
[2] = tested on: A549 NSCLC
[3] = tested on: ACHN renal
[4] = tested on: BT-549 breast
[5] = tested on: CAKI-1 renal
[6] = tested on: CCRF-CEM leukemia
[7] = tested on: COLO 205 colon
[8] = tested on: DU-145 prostate
[9] = tested on: EKVX NSCLC
[10] = tested on: HCT-116 colon
[11] = tested on: HCT-15 colon
[12] = tested on: HL-60(TB) leukemia
[13] = tested on: HOP-62 NSCLC
[14] = tested on: HOP-92 NSCLC
[15] = tested on: HS 578T breast
[16] = tested on: IGROV1 ovarian
[17] = tested on: K-562 leukemia
[18] = tested on: KM12 colon
[19] = tested on: MCF7 breast
[20] = tested on: MDA-MB-231 breast
[21] = tested on: MDA-MB-435
[22] = tested on: MOLT-4 leukemia
[23] = tested on: NCI-H460 lung
[24] = tested on: NCI-H522 lung
[25] = tested on: NCI/ADR-RES ovarian
[26] = tested on: OVCAR-3 ovarian
[27] = tested on: OVCAR-4 ovarian
[28] = tested on: OVCAR-5 ovarian
[29] = tested on: OVCAR-8 ovarian
[30] = tested on: PC-3 prostate
[31] = tested on: RPMI-8226 leukemia
[32] = tested on: SF-268 CNS
[33] = tested on: SF-295 CNS
[34] = tested on: SK-MEL-2 melanoma
[35] = tested on: SK-MEL-28 melanoma
[36] = tested on: SK-MEL-5 melanoma
[37] = tested on: SK-OV-3 ovarian
[38] = tested on: SN12C renal
[39] = tested on: SNB-19 CNS
[40] = tested on: SNB-75 CNS
[41] = tested on: SW-620 colon
[42] = tested on: T-47D breast
[43] = tested on: TK-10 renal
[44] = tested on: U251 CNS
[45] = tested on: UACC-62 melanoma
[46] = tested on: UO-31 renal
[47] = tested on: A498 renal
[48] = tested on: HCC-2998 colon
[49] = tested on: HT29 colon
[50] = tested on: LOX IMVI melanoma
[51] = tested on: M14 melanoma
[52] = tested on: MALME-3M melanoma
[53] = tested on: NCI-H226 lung
[54] = tested on: NCI-H23 lung
[55] = tested on: RXF 393 renal
[56] = tested on: SF-539 CNS
[57] = tested on: UACC-257 melanoma

O=C(NCCc1ccccc1)C(c1ccccc1)(c1ccccc1)c1ccccc1
14.6 µM: TGI [45]
6.59 µM: TGI [25]
9.35 µM: TGI [3]
44.2 µM: TGI [8]
29.8 µM: TGI [34]
5.59 µM: TGI [2]
21.4 µM: TGI [36]
9.42 µM: TGI [43]
12.4 µM: TGI [44]
5.96 µM: TGI [38]
43.4 µM: TGI [46]
11.3 µM: TGI [18]
38.1 µM: TGI [24]
45.8 µM: TGI [21]
23.7 µM: TGI [15]
26.1 µM: TGI [5]
9.36 µM: TGI [33]
> 100 µM: TGI [1] | TGI [6] | TGI [7] | TGI [10] | TGI [11] | TGI [12] | TGI [13] | TGI [14] | TGI [17] | TGI [19] | TGI [22] | TGI [23] | TGI [26] | TGI [27] | TGI [30] | TGI [31] | TGI [32] | TGI [35] | TGI [37] | TGI [39] | TGI [40] | TGI [41] | TGI [42]
44.9 µM: TGI [4]
4.44 µM: TGI [29]
4.21 µM: TGI [20]
inactive: GI50 [1] 5.43 µM | GI50 [2] 1.75 µM | GI50 [3] 3.13 µM | GI50 [4] 5.99 µM | GI50 [5] 4.16 µM | GI50 [6] 40 µM | GI50 [7] 3.26 µM | GI50 [8] 3.38 µM | GI50 [9] 4.13 µM | GI50 [10] 1.95 µM | GI50 [11] 5.91 µM | GI50 [12] 38.7 µM | GI50 [13] 7.1 µM | GI50 [14] > 100 µM | GI50 [15] 3.88 µM | GI50 [16] 28.8 µM | GI50 [17] 44.9 µM | GI50 [18] 3.19 µM | GI50 [19] 26 µM | GI50 [20] 0.519 µM | GI50 [21] 12.2 µM | GI50 [22] > 100 µM | GI50 [23] 31.5 µM | GI50 [24] 13.1 µM | GI50 [25] 2.23 µM | GI50 [26] 5.78 µM | GI50 [27] > 100 µM | GI50 [28] 3.91 µM | GI50 [29] 1.62 µM | GI50 [30] 31 µM | GI50 [31] 15.9 µM | GI50 [32] 30 µM | GI50 [33] 2.51 µM | GI50 [34] 7.04 µM | GI50 [35] 20.1 µM | GI50 [36] 8.97 µM | GI50 [37] 26 µM | GI50 [38] 1.8 µM | GI50 [39] 7.27 µM | GI50 [40] > 100 µM | GI50 [41] 4.35 µM | GI50 [42] 30.4 µM | GI50 [43] 1.86 µM | GI50 [44] 2.93 µM | GI50 [45] 1.46 µM | GI50 [46] 6.32 µM
70 µM: TGI [16]
27.1 µM: TGI [9]
50.6 µM: TGI [28]

COC(=O)[C@@]1(Cc2ccccc2)[C@H]2c3cc(C(=O)N4CCCC4)n(Cc4ccc(OC)c(OC)c4)c3C[C@H]2CN1C(=O)c1ccccc1
18.2 µM: TGI [18]
17.3 µM: TGI [46]
44.8 µM: TGI [19]
46.2 µM: TGI [2]
13.8 µM: TGI [10]
23.5 µM: TGI [31]
19.6 µM: TGI [24]
32.1 µM: TGI [42]
15.2 µM: TGI [57]
14.4 µM: TGI [36]
19.2 µM: TGI [47]
12.4 µM: TGI [7]
19.4 µM: TGI [15]
17.8 µM: TGI [13]
25.7 µM: TGI [51]
43.9 µM: TGI [43]
34.4 µM: TGI [33]
28 µM: TGI [14]
40.7 µM: TGI [44]
12.8 µM: TGI [55]
21 µM: TGI [52] | TGI [26]
21.7 µM: TGI [35]
36.1 µM: TGI [54]
> 50 µM: TGI [1] | TGI [3] | TGI [5] | TGI [6] | TGI [8] | TGI [27] | TGI [30] | TGI [32] | TGI [37] | TGI [39] | TGI [40]
14.5 µM: TGI [11]
inactive: GI50 [1] 13.7 µM | GI50 [47] 10.4 µM | GI50 [2] 13.7 µM | GI50 [3] 17.8 µM | GI50 [4] 8.46 µM | GI50 [5] 14 µM | GI50 [6] 16.4 µM | GI50 [7] 5.83 µM | GI50 [8] 15 µM | GI50 [9] 9.84 µM | GI50 [48] 8.86 µM | GI50 [10] 7.28 µM | GI50 [11] 7.77 µM | GI50 [12] 8.96 µM | GI50 [13] 8.34 µM | GI50 [14] 13.3 µM | GI50 [15] 6.56 µM | GI50 [49] 9.12 µM | GI50 [17] 9.27 µM | GI50 [18] 9.44 µM | GI50 [50] 9.12 µM | GI50 [51] 11.5 µM | GI50 [52] 10.4 µM | GI50 [19] 13.8 µM | GI50 [20] 8.17 µM | GI50 [21] 11.7 µM | GI50 [22] 7.94 µM | GI50 [53] 9.78 µM | GI50 [54] 11.6 µM | GI50 [23] 9.12 µM | GI50 [24] 8.73 µM | GI50 [25] 11.4 µM | GI50 [26] 9.03 µM | GI50 [27] 16.4 µM | GI50 [28] 9.19 µM | GI50 [29] 11.8 µM | GI50 [30] 22.6 µM | GI50 [31] 10.8 µM | GI50 [55] 5.89 µM | GI50 [32] 13.3 µM | GI50 [33] 12.7 µM | GI50 [56] 9.73 µM | GI50 [34] 8.76 µM | GI50 [35] 10.1 µM | GI50 [36] 7.71 µM | GI50 [37] 18.9 µM | GI50 [38] 9.96 µM | GI50 [39] 17.4 µM | GI50 [40] 17.4 µM | GI50 [41] 6.92 µM | GI50 [42] 9.55 µM | GI50 [43] 16 µM | GI50 [44] 13 µM | GI50 [57] 7.72 µM | GI50 [45] 7.49 µM | GI50 [46] 8.5 µM
25 µM: TGI [49]
19.3 µM: TGI [53]
21.2 µM: TGI [9]
18.7 µM: TGI [34]
24.8 µM: TGI [12] | TGI [38]
13.4 µM: TGI [41]
35.4 µM: TGI [25]
18.9 µM: TGI [23]
15.8 µM: TGI [48] | TGI [45]
18.1 µM: TGI [56]
16.8 µM: TGI [50]
21.4 µM: TGI [20]
34.1 µM: TGI [29]
32.8 µM: TGI [21] | TGI [22]
16.1 µM: TGI [4]
21.8 µM: TGI [28]
37.3 µM: TGI [17]
